The subject of the experiment is microfilariae of Dirofilaria immitis. The experiment can be described thus: Dirofilaria immitis, Microfilaria (DiMF) Assay. It is filed as cell-based. The settings on record: in vitro, stage (microfilaria or L4) not given, class A/B/C, read-out: D. immitis activity level (IC50 or MED). The procedure: Heartworm Screen Dirofilaria immitis (D. immitis)
Dirofilaria immitis, Microfilaria (DiMF) Assay.
Compounds were dissolved and serially diluted in DMSO. Aliquots were spotted to the empty wells of assay plates. Media and microfilariae of Dirofilaria immitis were added to each well to dilute the test compounds to the desired concentrations. Assay plates were incubated for approximately 72 hours, and the larvae in each well were observed microscopically for drug effect. Microfilariae in each well were assessed subjectively for survival or paralysis, and results were reported as Minimum Effective Dose (MED).
Active and selective (DiL4 vs. DiMF potency) example compounds were subsequently evaluated in heartworm positive dog studies to correlate the in vitro selectivity profile with in vivo effects on circulating microfilariae.

Consider “2-(3-(5-isoprop- oxypyridin-2- yl)-1,2,4- thiadiazol-5- ylamino)-N,N- dimethyl-5- (trifluoromethyl) nicotinamide [Compound 250]”, for which the concentration for half-maximal inhibition (IC50) was less than 200 nM.

In general, IC50 refers to the point on the concentration scale where inhibition reaches its midpoint.

The values above are taken from US11505548B2, “Heterocyclic compounds and their use for treatment of helminthic infections and diseases” (Celgene Corporation, priority 2019, dated 2022).
